Assay results published in the Kinase Knowledgebase extract (Sharma et al. 2016).

How the values were obtained:
EGFR = EGFR (UniProt P00533)
EGFR (mouse) = EGFR (mouse) (UniProt P00533); settings: mk

Chain of EGFR (P00533 whole entry, looked up): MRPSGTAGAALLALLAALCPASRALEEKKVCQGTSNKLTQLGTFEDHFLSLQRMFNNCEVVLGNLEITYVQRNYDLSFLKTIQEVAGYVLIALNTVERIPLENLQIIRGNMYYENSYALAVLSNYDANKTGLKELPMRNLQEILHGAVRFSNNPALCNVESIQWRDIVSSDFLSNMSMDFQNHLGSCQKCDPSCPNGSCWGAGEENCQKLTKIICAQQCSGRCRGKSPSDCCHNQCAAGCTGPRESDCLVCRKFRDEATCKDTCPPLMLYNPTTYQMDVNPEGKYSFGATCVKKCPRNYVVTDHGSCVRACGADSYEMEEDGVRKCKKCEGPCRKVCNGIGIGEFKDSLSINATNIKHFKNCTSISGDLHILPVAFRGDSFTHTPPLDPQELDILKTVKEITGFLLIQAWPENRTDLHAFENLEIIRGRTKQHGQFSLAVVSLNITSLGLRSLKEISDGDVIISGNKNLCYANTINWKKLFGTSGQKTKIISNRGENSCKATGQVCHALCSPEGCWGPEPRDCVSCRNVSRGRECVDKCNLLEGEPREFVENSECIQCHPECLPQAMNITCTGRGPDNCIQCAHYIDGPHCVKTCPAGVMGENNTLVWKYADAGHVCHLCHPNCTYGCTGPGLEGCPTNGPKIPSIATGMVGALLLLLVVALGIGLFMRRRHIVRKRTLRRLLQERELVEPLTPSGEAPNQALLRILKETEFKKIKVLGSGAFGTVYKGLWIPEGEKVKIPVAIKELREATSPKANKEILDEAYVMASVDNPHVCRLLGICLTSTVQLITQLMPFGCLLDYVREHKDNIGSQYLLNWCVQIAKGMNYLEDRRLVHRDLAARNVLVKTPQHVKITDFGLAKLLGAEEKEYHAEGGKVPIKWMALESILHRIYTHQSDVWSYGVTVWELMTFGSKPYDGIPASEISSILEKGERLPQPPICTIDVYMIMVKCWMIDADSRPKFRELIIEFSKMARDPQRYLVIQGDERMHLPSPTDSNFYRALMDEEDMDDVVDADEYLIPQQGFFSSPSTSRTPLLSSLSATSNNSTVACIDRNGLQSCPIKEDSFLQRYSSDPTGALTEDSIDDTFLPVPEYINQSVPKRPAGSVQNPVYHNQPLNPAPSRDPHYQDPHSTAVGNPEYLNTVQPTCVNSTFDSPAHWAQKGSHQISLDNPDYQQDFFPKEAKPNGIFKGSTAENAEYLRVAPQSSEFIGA

Row | Structure (SMILES) | IC50 (EGFR) | IC50 (EGFR (mouse))
1 | O=C1c2cc(O)cc(O)c2C(=O)c2c1cc(O)c(CO)c2O | 6.7 µM | 10 µM
2 | O=C1c2cc(O)cc(O)c2C(=O)c2c1cc(O)c(C(CCO)C(=O)O)c2O (centres undefined) | 10.5 µM | 16 µM
3 | CC(=O)CCC(C(=O)O)c1c(O)cc2c(c1O)C(=O)c1c(O)cc(O)cc1C2=O (centres undefined) | 21 µM | > 50 µM
4 | COC(=O)C(CCC(C)=O)c1c(O)cc2c(c1O)C(=O)c1c(O)cc(O)cc1C2=O (centres undefined) | 17 µM | 28 µM
5 | O=C1c2cc(O)cc(O)c2C(=O)c2c1cc(O)c(C(CO)CCO)c2O (centres undefined) | 21 µM | 22 µM
6 | C[C@]12CC[C@@H](CO1)c1c(cc3c(c1O)C(=O)c1c(O)cc(O)cc1C3=O)O2 | 38 µM | 18 µM
7 | O=C1c2cc(O)cc(O)c2C(=O)c2c1cc(O)c(C1CCOC1=O)c2O (centres undefined) | 11 µM | 35 µM
